Reference: US20120053053A1, “PYRIMIDINE DERIVATIVES AND THEIR USE AS HERBICIDES” (SYNGENTA CROP PROTECTION, LLC, priority 2009, published 2012)

Legend:
Type in all cases: in vivo
[1] = system: Alopecurus myosuroides (ALOMY); assay: Pre-emergence biological efficacy (percentage damage); settings: dose 1,000 g/ha, evaluated after 13 days, 100=total damage, 0=no damage; for pest or weed control at 1000 g/ha: Alopecurus myosuroides, 312 h
Outline: (§1)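 Pre-emergence test: seeds sown in standard soil in pots, kept one day in a glasshouse (24/16° C. day/night, 14 h light, 65% humidity), then sprayed at 250 or 1000 g/ha from an acetone/water (50:50) formulation with 0.5% Tween 20. Damage scored after 13 days (0 = none, 100 = total).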

[2] = system: Amaranthus retoflexus (AMARE); assay: as above; settings: dose 1,000 g/ha, evaluated after 13 days, 100=total damage, 0=no damage; for pest or weed control at 1000 g/ha: Amaranthus retroflexus, 312 h
Outline: as §1

[3] = system: Echinochloa crus-galli (ECHCG); assay: as above; settings: dose 1,000 g/ha, evaluated after 13 days, 100=total damage, 0=no damage; for pest or weed control at 1000 g/ha: Echinochloa crus-galli, 312 h
Outline: as §1

[4] = system: Ipomea hederaceae (IPOHE); assay: as above; settings: dose 1,000 g/ha, evaluated after 13 days, 100=total damage, 0=no damage; for pest or weed control at 1000 g/ha: Ipomoea hederacea, 312 h
Outline: as §1

[5] = system: Setaria faberi (SETFA); assay: as above; settings: dose 1,000 g/ha, evaluated after 13 days, 100=total damage, 0=no damage; for pest or weed control at 1000 g/ha: Setaria faberi, 312 h
Outline: as §1

[6] = system: Solanum nigrum (SOLNI); assay: as above; settings: dose 1,000 g/ha, evaluated after 13 days, 100=total damage, 0=no damage; for pest or weed control at 1000 g/ha: Solanum nigrum, 312 h
Outline: as §1

[7] = system: Alopecurus myosuroides (ALOMY); assay: Post-emergence biological efficacy (percentage damage); settings: dose 1,000 g/ha, evaluated after 13 days, 100=total damage, 0=no damage; for pest or weed control at 1000 g/ha: Alopecurus myosuroides, 312 h
Outline: (§2)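 Percentage damage (0 no damage to 100 total) was assessed 13 days after spraying plants raised for 8 days in pots. Test compound was applied as an aqueous acetone/water (50:50) spray containing 0.5% Tween 20 to give 250 or 1000 g/ha.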

[8] = system: Amaranthus retoflexus (AMARE); assay: as above; settings: dose 1,000 g/ha, evaluated after 13 days, 100=total damage, 0=no damage; for pest or weed control at 1000 g/ha: Amaranthus retroflexus, 312 h
Outline: as §2

[9] = system: Echinochloa crus-galli (ECHCG); assay: as above; settings: dose 1,000 g/ha, evaluated after 13 days, 100=total damage, 0=no damage; for pest or weed control at 1000 g/ha: Echinochloa crus-galli, 312 h
Outline: as §2

[10] = system: Ipomea hederaceae (IPOHE); assay: as above; settings: dose 1,000 g/ha, evaluated after 13 days, 100=total damage, 0=no damage; for pest or weed control at 1000 g/ha: Ipomoea hederacea, 312 h
Outline: as §2

[11] = system: Setaria faberi (SETFA); assay: as above; settings: dose 1,000 g/ha, evaluated after 13 days, 100=total damage, 0=no damage; for pest or weed control at 1000 g/ha: Setaria faberi, 312 h
Outline: as §2

[12] = system: Solanum nigrum (SOLNI); assay: as above; settings: dose 1,000 g/ha, evaluated after 13 days, 100=total damage, 0=no damage; for pest or weed control at 1000 g/ha: Solanum nigrum, 312 h
Outline: as §2

Compound | pest or weed control at 1000 g/ha [1] [%] | pest or weed control at 1000 g/ha [2] [%] | pest or weed control at 1000 g/ha [3] [%] | pest or weed control at 1000 g/ha [4] [%] | pest or weed control at 1000 g/ha [5] [%] | pest or weed control at 1000 g/ha [6] [%] | pest or weed control at 1000 g/ha [7] [%] | pest or weed control at 1000 g/ha [8] [%] | pest or weed control at 1000 g/ha [9] [%] | pest or weed control at 1000 g/ha [10] [%] | pest or weed control at 1000 g/ha [11] [%] | pest or weed control at 1000 g/ha [12] [%] | other results
C=Cc1c(N)nc(-c2ccc(Cl)c(N(C)C)c2F)nc1C(=O)OCc1ccccc1 [Compound 33-336, 4-Amino-2-(4-chloro-3-dimethylamino-2-fluorophenyl)-5-ethenyl-6-phenylmethoxy-carbonyl-pyrimidine] | 70 | 100 | 90 | 20 | 80 | 80 | 90 | 100 | 90 | 40 | 90 | 90 | –
C=Cc1c(N)nc(-c2ccc(Cl)c(N(C)C)c2F)nc1C(=O)OCCCC [Compound 33-391] | 70 | 100 | 100 | 20 | 90 | 100 | 70 | 100 | 90 | 80 | 90 | 80 | –
C=Cc1c(N)nc(-c2ccc(Cl)c(N(C)C)c2F)nc1C(=O)OCCCCCCCC [Compound 33-392] | – | – | – | – | – | – | – | – | – | – | – | – | Percentage damage ALOMY, pre-emergence [1]: 70%; Percentage damage AMARE, pre-emergence [2]: 100%; Percentage damage ECHCG, pre-emergence [3]: 100%; Percentage damage IPOHE, pre-emergence [4]: 0%; Percentage damage SETFA, pre-emergence [5]: 90%; Percentage damage SOLNI, pre-emergence [6]: 80%; Percentage damage ALOMY, post-emergence [7]: 70%; Percentage damage AMARE, post-emergence [8]: 100%; Percentage damage ECHCG, post-emergence [9]: 80%; Percentage damage IPOHE, post-emergence [10]: 80%; Percentage damage SETFA, post-emergence [11]: 60%; Percentage damage SOLNI, post-emergence [12]: 90%
C=Cc1c(N)nc(-c2ccc(Cl)c(N(C)C)c2F)nc1C(=O)OCC(CC)CCCC (stereo not drawn) [Compound 33-393, 4-Amino-2-(4-chloro-3-dimethylamino-2-fluorophenyl)-5-ethenyl-6-(2-ethylhexyloxy) carbonyl-pyrimidine] | 0 | 20 | 0 | 0 | 0 | 20 | 0 | 70 | 20 | 70 | 0 | 70 | –
C=Cc1c(N)nc(-c2ccc(Cl)c(N(C)C)c2F)nc1C(=O)OC(C)c1ccccc1 (stereo not drawn) [Compound 33-394, 4-Amino-2-(4-chloro-3-dimethylamino-2-fluorophenyl)-5-ethenyl-6-(1-phenyl-ethoxy)carbonyl-pyrimidine] | 20 | 40 | 30 | 0 | 30 | 40 | 30 | 100 | 60 | 30 | 50 | 80 | –
C=CCOC(=O)c1nc(-c2ccc(Cl)c(N(C)C)c2F)nc(N)c1C=C [Compound 33-395, 4-Amino-2-(4-chloro-3-dimethylamino-2-fluorophenyl)-5-ethenyl-6-(prop-2-enyloxy)carbonyl-pyrimidine] | 60 | 100 | 90 | 30 | 80 | 100 | 70 | 100 | 100 | 30 | 100 | 100 | –
C=Cc1c(N)nc(-c2ccc(Cl)c(N(C)C)c2F)nc1C(=O)OCCOCC [Compound 33-396, 4-Amino-2-(4-chloro-3-dimethylamino-2-fluorophenyl)-5-ethenyl-6-(2-ethoxy-ethoxy)carbonyl-pyrimidine] | 70 | 100 | 90 | 50 | 80 | 90 | 70 | 100 | 100 | 60 | 90 | 90 | –
C=Cc1c(N)nc(-c2ccc(Cl)c(N(C)C)c2F)nc1C(=O)OCCOCCCC [Compound 33-397] | 80 | 100 | 100 | 50 | 90 | 100 | 80 | 100 | 90 | 80 | 90 | 90 | –
C=Cc1c(N)nc(-c2ccc(F)cc2)nc1C(=O)OC [Compound 41-61, 4-Amino-5-ethenyl-2-(4-fluorophenyl)-6-methoxycarbonyl-pyrimidine] | 20 | 100 | 10 | 40 | 10 | 0 | 20 | 100 | 10 | 60 | 10 | 90 | –
C=Cc1c(N)nc(-c2ccc(F)c(OC)c2)nc1C(=O)OC [Compound 42-61, 4-Amino-5-ethenyl-2-(4-fluoro-3-methoxyphenyl)-6-methoxycarbonyl-pyrimidine] | 10 | 60 | 10 | 0 | 20 | 20 | 30 | 100 | 30 | 10 | 40 | 30 | –
C=Cc1c(N)nc(-c2ccc(F)c(C(F)(F)F)c2)nc1C(=O)OC [Compound 43-61, 4-Amino-5-ethenyl-2-(4-fluoro-3-trifluoromethyl-phenyl)-6-methoxycarbonyl-pyrimidine] | 30 | 60 | 70 | 10 | 50 | 70 | 30 | 20 | 30 | 10 | 20 | 70 | –
C=Cc1c(N)nc(-c2ccc(F)c(Cl)c2)nc1C(=O)OC [Compound 44-61, 4-Amino-2-(3-chloro-4-fluorophenyl)-5-ethenyl-6-methoxycarbonyl-pyrimidine] | 20 | 50 | 40 | 10 | 30 | 40 | 40 | 100 | 50 | 30 | 60 | 90 | –
C=Cc1c(N)nc(-c2ccc(F)c(C)c2)nc1C(=O)OC [Compound 45-61, 4-Amino-5-ethenyl-2-(4-fluoro-3-methylphenyl)-6-methoxycarbonyl-pyrimidine] | 50 | 100 | 40 | 0 | 50 | 40 | 50 | 100 | 40 | 30 | 50 | 70 | –
